Values joined by “and” are separate entries in the source; they are usually repeats but may differ in a detail not shown here. Identical values can stand only once. “Also recorded” adds a separate entry of the source.
Legend:
Recombinant human Arg2 = target: T1, Recombinant human Arg2 (Homo sapiens, UniProt P78540); test: Recombinant arginase activity assay, Arg2; assay type: biochemical; conditions: mean (SD), N=2, 20 mM L-arginine
T1 construct: Recombinant human arginase 2 (Arg2) comprising amino acids […] was purchased from US Biological; purchased US Biological
T1 sequence (P78540 23-354): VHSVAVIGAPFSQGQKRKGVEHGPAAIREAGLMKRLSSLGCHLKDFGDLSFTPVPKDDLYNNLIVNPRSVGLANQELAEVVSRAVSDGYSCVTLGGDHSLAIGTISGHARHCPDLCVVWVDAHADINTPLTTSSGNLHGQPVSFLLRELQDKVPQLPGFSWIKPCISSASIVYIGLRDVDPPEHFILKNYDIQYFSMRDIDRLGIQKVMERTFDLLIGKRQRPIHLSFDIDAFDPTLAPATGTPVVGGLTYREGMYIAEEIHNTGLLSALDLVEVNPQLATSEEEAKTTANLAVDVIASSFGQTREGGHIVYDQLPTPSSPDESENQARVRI
Excerpt: Recombinant arginase activity assays. […] Recombinant human arginase 2 (Arg2) comprising amino acids […] was purchased from US Biological (Salem, Mass.).
Standard deviations are indicated in parentheses. […] N/A=not applicable.

[1] = tested on: intracellular arginase in Human HepG2 cell line; test: Native arginase activity in intact cells, HepG2; assay type: cell-based; conditions: mean (SD), N=3, 10 mM L-arginine, urea in media after 24 h
Excerpt: Native arginase activity in intact cells.
Standard deviations are indicated in parentheses.

LLC cell line = test: Cytotoxicity assay (CellTiterGlo), LLC; assay type: cell-based, murine; conditions: 1 mM arginase inhibitor, 72 h
Description: Cytotoxicity assays. […] Cytotoxicity was assayed by the addition of CellTiterGlo reagent according to the manufacturer's instructions (Promega, Madison, Wis.) followed by […] quantification on a Molecular Devices plate reader (Sunnyvale, Calif.).

CT26 tumors = assay type: in vivo
Excerpt: (§1) Murine tumor studies. Female wild-type C57BL/6 and Balb/c mice (5-6 weeks old) were purchased from Charles River Laboratories (Hollister, Calif.). Severe combined immune deficient (SCID, B6.CB17-PrkdcSCID/SzJ) and Pmel-1 TCR transgenic (B6.Cg-Thyla/Cy Tg(TcraTcrb)8Rest/J) mice (5-6 weeks old) were purchased from The Jackson Laboratory (Bar Harbor, Me.). All mice were housed and treated in accordance with Institutional Animal Care and Use Committee guidelines. For the 4T1 tumor model, 1×10^5 cells were injected orthotopically into the mammary fat pad; for all other tumor models, 1×10^6 cells were injected subcutaneously (s.c.) in the right flank. […] Control groups received vehicle (water) twice daily by gavage. Tumor volume measured by digital caliper (length×width×width/2) and body weight were recorded three times weekly. Animals were euthanized when tumors necrotized or volumes reached 2000 mm^3. Anti-PD-L1 antibody (5 mg/kg, clone 10F.9G2, BioXCell, West Lebanon, N.H.) was injected intraperitoneally (i.p.) on days 5, 7, 9, 11, 13, and 15 for the CT26 model. Gemcitabine (Selleckchem, Houston, Tex.) was dosed 50 mg/kg i.p. on days 10 and 16 for the CT26 model or 60 mg/kg i.p. on days 6 and 10 for the LLC model. For CD8^+ cell depletion, mice were injected i.p. with anti-CD8 antibody (25 mg/kg, clone 2.43, BioXCell) on days −1, 0, +5, and +10. For NK cell depletion, mice were injected i.p. with anti-NK1.1 antibody (25 mg/kg, clone PK136, BioXCell) in the LLC and B16 models or with anti-Asialo GM1 sera (20 μL, Wako Chemicals, Richmond, Va.) in the CT26 model, per the same schedule as anti-CD8.
(§2) Tumor dissociation and flow cytometry. […] Excised tumors were placed in RPMI-1640 containing 5% FBS on ice, minced with a razor blade, and dissociated in RPMI-1640 supplemented with mouse tumor dissociation enzymes (Miltenyi Biotec, Bergisch Gladbach, Germany) on a GentleMACS Octo Dissociator With Heat (Miltenyi Biotec) according to the manufacturer's instructions. Dissociated tumors were strained through 70 μm nylon mesh, washed with cold PBS containing 2% FBS, blocked with anti-CD16/CD32 (Fc block antibody, eBioscience), and stained for cell surface antigens. For B16 and 4T1 tumors, washed dissociated tumor cells were incubated with Dead Cell Removal MicroBeads (Miltenyi Biotec) and applied to a magnetic column prior to staining. For intracellular staining, cells were fixed and permeabilized using buffers purchased from R&D Systems or eBioscience for cytoplasmic or nuclear antigens, respectively. All tumor flow experiments were acquired on an Attune N×T flow cytometer and analyzed with FlowJo software version 10 (Ashland, Oreg.), using fluorescence-minus-one controls for gating and single-stained OneComp eBeads (eBioscience) to set compensation matrices.

LLC tumors = test: LLC syngeneic tumor model; assay type: in vivo, mouse
Excerpt: as §1, §2
Gene expression analysis. […] RNA was extracted for gene expression analysis and transcripts were quantified by NanoString Technologies (Seattle, Wash.).
Cytokine analysis. […] Tumors were homogenized in 50 mM Tris-HCl buffer containing 2 mM EDTA, pH 7.4 and protease inhibitors. The homogenate was centrifuged and the supernatant was collected and re-frozen. Cytokines in the supernatant were quantified by Myriad Rules Based Medicine (Austin, Tex.).

4T1 tumors = test: 4T1 orthotopic tumor model; assay type: in vivo, mouse
Excerpt: as §1, §2

B16.F10 tumor = test: Example 1: arginase inhibitor with adoptive immunotherapy, B16.F10 tumors; assay type: in vivo, mouse; conditions: 100 mg/kg twice a day, vs adoptive T cell therapy only; survival P value 0.0137
Description: In order to test the effect of arginase inhibitors and adoptive immunotherapy on cancer progression, mice were inoculated with B16.F10 cells to generate a tumor. Approximately 1×10^6 cells were implanted in C57.Bl/6 mice. Mice were then treated with non-myeloablative chemotherapy (Cyclophosphamide 250 mg/kg and Fludarabine 50 mg/kg). Cyclophosphamide and Fludarabine were dosed via intraperitoneal injection on day 7 (FIG. 1A, orange arrow). Pme1-1 CD8 T cells (1×10^6) were intravenously transferred on day 8 (FIG. 1A, blue arrow). Recombinant human IL-2 (200,000 UI) was dosed via intraperitoneal injection twice a day on days 8, 9, 10 in mice receiving adoptive immunotherapy. […] Survival curves can be seen in FIG. 1C. P value is 0.0137, and was calculated by Mantel-Cox test. (N=9-10 per group).

[2] = 100 mg/kg BID, study day 14, flow cytometry
[3] = 100 mg/kg BID, study day 10, flow cytometry

Structure (SMILES): C[C@H](N)C(=O)N1C[C@H](CCCB(O)O)[C@](N)(C(=O)O)C1 [arginase inhibitor]
- IC50 (Recombinant human Arg2): 274 nM and 296 nM
- IC50 [1]: 32000 nM
- Growth inhibition of LLC cell line (LLC cell line): No growth inhibition
- Tumor growth, single agent (CT26 tumors; 100 mg/kg BID PO): significantly inhibited the growth; also recorded: reduced
- Tumor-infiltrating activated CD25+ CD8+ cytotoxic T cells vs vehicle (CT26 tumors; [2]): increase
- Efficacy after depletion of either CD8+ cells or NK cells (CT26 tumors; 100 mg/kg twice daily, depleting antibodies): blocked the efficacy
- Tumor growth inhibition, combination with anti-PD-L1 (CT26 tumors; arginase inhibitor 100 mg/kg BID plus anti-PD-L1 5 mg/kg i.p., vs monotherapies): enhanced
- Survival at study day 46, combination with anti-PD-L1 (CT26 tumors; arginase inhibitor plus anti-PD-L1): 90%
- Complete responses, combination with anti-PD-L1 (CT26 tumors; arginase inhibitor plus anti-PD-L1, N=10 per group): six
- Tumor growth inhibition, combination with gemcitabine (CT26 tumors; gemcitabine 50 mg/kg i.p. days 10 and 16): significant increase in tumor growth inhibition
- Tumor growth, single agent (LLC tumors; 100 mg/kg BID PO): significantly inhibited the growth
- Transcripts of interferon-responsive genes in tumors vs vehicle (LLC tumors; 100 mg/kg BID, Nanostring): increases
- CD8+ T cells in the tumor vs vehicle (LLC tumors; [2]): increase
- CD68+ macrophages in the tumor vs vehicle (LLC tumors; [2]): decrease
- Effect of depletion of CD8+ cells on efficacy (LLC tumors; 100 mg/kg twice daily, anti-CD8): smaller effect
- Efficacy after depletion of NK cells (LLC tumors; 100 mg/kg twice daily, anti-NK1.1): loss of efficacy
- Inflammatory cytokines in tumors vs vehicle (LLC tumors; 200 mg/kg BID, Luminex): increases
- Tumor growth inhibition, combination with gemcitabine (LLC tumors; gemcitabine 60 mg/kg i.p. days 6 and 10): significant increase in tumor growth inhibition
- Tumor growth, single agent (4T1 tumors; 100 mg/kg BID PO): significantly inhibited the growth; also recorded: modest effect on tumor growth
- CD3+ T cells in the tumor vs vehicle (4T1 tumors; [3]): increase
- Myeloid cells in the tumor vs vehicle (4T1 tumors; [3]): decrease
- NK cells in the tumor vs vehicle (4T1 tumors; [3]): increase
- Tumor volume over 25 days, combination with adoptive T cell therapy (B16.F10 tumor): slower tumor progression

— patent US11291674B2 (CALITHERA BIOSCIENCES, INC., priority 2016, dated 2022)
